Experimental data: patent EP3478687B1 (Daewoong Pharmaceutical Co., Ltd., priority 2016, dated 2018)
Structures can show the parent of a compound that is named as a salt.

Tests used:
[1] = target: T1, Recombinant purified human JAK3 (Homo sapiens, UniProt P52333); assay: JAK3 kinase inhibitory activity, ADP-Glo kinase assay (Promega V9441); assay type: biochemical; conditions: ATP 5 uM, 4 ng JAK3 per reaction, 1 hour 30 °C, chemiluminescence
T1 construct: purchased Promega V9441
T1 sequence (P52333 1-1124): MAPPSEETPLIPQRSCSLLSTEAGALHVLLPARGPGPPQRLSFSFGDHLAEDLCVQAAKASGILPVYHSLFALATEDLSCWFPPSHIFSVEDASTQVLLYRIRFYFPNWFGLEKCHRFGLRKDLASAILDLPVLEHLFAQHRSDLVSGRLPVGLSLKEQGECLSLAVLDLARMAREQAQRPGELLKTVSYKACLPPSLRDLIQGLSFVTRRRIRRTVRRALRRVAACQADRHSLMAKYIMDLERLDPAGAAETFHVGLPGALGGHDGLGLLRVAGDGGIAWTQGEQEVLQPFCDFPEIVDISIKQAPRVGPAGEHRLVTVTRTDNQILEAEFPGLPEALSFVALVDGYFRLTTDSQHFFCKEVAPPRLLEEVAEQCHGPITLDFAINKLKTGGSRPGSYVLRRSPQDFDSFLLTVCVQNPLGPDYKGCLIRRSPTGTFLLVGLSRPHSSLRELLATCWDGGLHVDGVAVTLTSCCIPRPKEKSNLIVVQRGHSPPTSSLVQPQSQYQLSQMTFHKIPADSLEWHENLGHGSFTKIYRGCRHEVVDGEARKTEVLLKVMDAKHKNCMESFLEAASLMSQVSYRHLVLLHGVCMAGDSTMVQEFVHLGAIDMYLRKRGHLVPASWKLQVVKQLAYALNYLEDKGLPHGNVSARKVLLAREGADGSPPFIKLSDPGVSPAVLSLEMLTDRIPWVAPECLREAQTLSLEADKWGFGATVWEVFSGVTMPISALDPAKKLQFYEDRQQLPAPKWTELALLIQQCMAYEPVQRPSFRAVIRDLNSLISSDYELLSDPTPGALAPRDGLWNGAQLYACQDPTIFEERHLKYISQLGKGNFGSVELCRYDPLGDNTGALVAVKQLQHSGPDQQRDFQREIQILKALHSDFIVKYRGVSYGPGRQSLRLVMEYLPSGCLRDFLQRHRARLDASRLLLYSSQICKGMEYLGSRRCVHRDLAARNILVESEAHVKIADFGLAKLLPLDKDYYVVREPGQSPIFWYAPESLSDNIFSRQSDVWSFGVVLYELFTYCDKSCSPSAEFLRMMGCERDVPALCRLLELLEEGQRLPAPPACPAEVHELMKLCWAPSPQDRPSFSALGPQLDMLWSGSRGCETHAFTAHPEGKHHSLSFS
Method in brief: (§1)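 IC50 values come from ADP-Glo luminescence after 1 h kinase reactions at 30 °C in 1% DMSO on 0.2 µg/µL Poly(Glu4,Tyr1) substrate. ATP was 10 µM for BTK (8 ng, buffer containing MnCl2) and 5 µM for JAK3 (4 ng), in Tris-Cl pH 7.5/MgCl2/BSA/DTT.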

[2] = target: T2, Recombinant purified human BTK (Homo sapiens, UniProt Q06187); assay: BTK kinase inhibitory activity, ADP-Glo kinase assay (Promega V9071); assay type: biochemical; conditions: ATP 10 uM, 8 ng BTK per reaction, 1 hour 30 °C, chemiluminescence
T2 construct: purchased Promega V9071
Method in brief: as §1

T2 sequence (Q06187 whole entry): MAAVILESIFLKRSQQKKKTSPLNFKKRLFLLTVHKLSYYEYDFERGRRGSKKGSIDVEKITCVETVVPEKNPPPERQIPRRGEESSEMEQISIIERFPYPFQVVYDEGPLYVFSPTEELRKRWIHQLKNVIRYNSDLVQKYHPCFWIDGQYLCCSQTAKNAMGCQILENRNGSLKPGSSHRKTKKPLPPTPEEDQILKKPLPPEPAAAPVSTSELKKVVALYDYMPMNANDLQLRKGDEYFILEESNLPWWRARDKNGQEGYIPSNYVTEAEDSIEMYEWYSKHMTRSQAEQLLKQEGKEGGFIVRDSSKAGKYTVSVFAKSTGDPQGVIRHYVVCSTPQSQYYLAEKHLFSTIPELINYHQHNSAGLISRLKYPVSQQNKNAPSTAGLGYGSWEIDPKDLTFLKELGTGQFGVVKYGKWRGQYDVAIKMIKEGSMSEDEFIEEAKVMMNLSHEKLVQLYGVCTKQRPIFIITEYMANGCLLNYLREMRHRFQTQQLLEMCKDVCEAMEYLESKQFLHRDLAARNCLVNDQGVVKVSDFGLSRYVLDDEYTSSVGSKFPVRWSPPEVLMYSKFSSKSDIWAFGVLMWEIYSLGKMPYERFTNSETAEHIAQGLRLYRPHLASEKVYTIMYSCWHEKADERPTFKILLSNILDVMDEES

| Structure (SMILES) | IC50 [1] | IC50 [2] |
| --- | --- | --- |
| C=CC(=O)N1CC[C@@H](C)[C@@H](Nc2nc(Nc3cnn(CC)c3)nc3[nH]cc(F)c23)C1 [Example 84, 1-((3R,4R)-3-((2-((1-ethyl-1H-pyrazol-4-yl)amino)-5-fluoro-7H-pyrrolo[2,3-d]pyrimidin-4-yl)amino)-4-methylpiperidin-1-yl)prop-2-en-1-one] | 3.8 nM | 6.6 nM |
| C=CC(=O)N1CCC[C@@H](Sc2nc(Nc3cnn(CC)c3)nc3[nH]cc(F)c23)C1 [Example 85, (R)-1-(3-((2-((1-ethyl-1H-pyrazol-4-yl)amino)-5-fluoro-7H-pyrrolo[2,3-d]pyrimidin-4-yl)thio)piperidin-1-yl)prop-2-en-1-one] | 1.5 nM | 2.2 nM |
| C=CC(=O)N1CCC[C@@H](N(C)c2nc(Nc3cnn(CC)c3)nc3[nH]cc(F)c23)C1 [Example 87, (R)-1-(3-((2-((1-ethyl-1H-pyrazol-4-yl)amino)-5-fluoro-7H-pyrrolo[2,3-d]pyrimidin-4-yl)(methyl)amino)piperidin-1-yl)prop-2-en-1-one] | 16.4 nM | 42.2 nM |
| C=CC(=O)N1CCC[C@@H](Nc2nc(Nc3cnn(CC)c3)nc3[nH]nc(Cl)c23)C1 [Example 91, (R)-1-(3-((3-chloro-6-((1-ethyl-1H-pyrazol-4-yl)amino)-1H-pyrazolo[3,4-d]pyrimidin-4-yl)amino)piperidin-1-yl)prop-2-en-1-one hydrochloride] | 1.1 nM | 1.1 nM |
| C=CC(=O)N1CC[C@@H](C)[C@@H](Nc2nc(Nc3cnn(CC)c3)nc3[nH]nc(Cl)c23)C1 [Example 92, 1-((3R,4R)-3-((3-chloro-6-((1-ethyl-1H-pyrazol-4-yl)amino)-1H-pyrazolo[3,4-d]pyrimidin-4-yl)amino)-4-methylpiperidin-1-yl)prop-2-en-1-one] | 4.5 nM | 2.1 nM |
| C=CC(=O)N1CC[C@@H](C)[C@@H](Nc2nc(Nc3cnn(CC(F)F)c3)nc3[nH]nc(Cl)c23)C1 [Example 93, 1-((3R,4R)-3-((3-chloro-6-((1-(2,2-difluoroethyl)-1H-pyrazol-4-yl)amino)-1H-pyrazolo [3,4-d]pyrimidin-4-yl)amino)-4-methylpiperidin-1-yl)prop-2-en-1-one] | 2 nM | 1.3 nM |
| C=CC(=O)N1CC[C@@H](C)[C@@H](Nc2nc(Nc3cnn(C4CC4)c3)nc3[nH]nc(Cl)c23)C1 [Example 94, 1-((3R,4R)-3-((3-chloro-6-((1-cyclopropyl-1H-pyrazol-4-yl)amino)-1H-pyrazolo[3,4-d]pyrimidin-4-yl)amino)-4-methylpiperidin-1-yl)prop-2-en-1-one] | 4.5 nM | 1.7 nM |
| C=CC(=O)N1CCC[C@@H](Nc2nc(Nc3ccc(N4CCOCC4)cc3F)nc3[nH]cc(Cl)c23)C1 [Example 97] | > 80 nM | 708 nM |
| C=CC(=O)N1CCC[C@@H](Nc2nc(Nc3ccc(N4CCOCC4)c(F)c3)nc3[nH]cc(Cl)c23)C1 [Example 98, (R)-1-(3-((5-chloro-2-((3-fluoro-4-morpholinophenyl)amino)-7H-pyrrolo [2,3-d]pyrimidin-4-yl)amino)piperidin-1-yl)prop-2-en-1-one] | 2.4 nM | 14.1 nM |
| C=CC(=O)N1CCC[C@@H](N(C)c2nc(Nc3cnn(CC)c3)nc3[nH]ccc23)C1 [Example 101, (R)-1-(3-((2-((1-ethyl-1H-pyrazol-4-yl)amino)-7H-pyrrolo[2,3-d]pyrimidin-4-yl)(methyl)amino)piperidin-1-yl)prop-2-en-1-one] | 1.8 nM | 7.4 nM |
| C=CC(=O)N1CCC[C@@H](N(C)c2nc(Nc3cnoc3)nc3[nH]ccc23)C1 [Example 102] | 13.2 nM | 146 nM |
| C=CC(=O)N1CCC[C@@H](N(C)c2nc(Nc3cnn(CC(F)F)c3)nc3[nH]ccc23)C1 [Example 103, (R)-1-(3-((2-((1-(2,2-difluoroethyl)-1H-pyrazol-4-yl)amino)-7H-pyrrolo[2,3-d]pyrimidin-4-yl)(methyl)amino)piperidin-1-yl)prop-2-en-1-one] | 1.3 nM | 21 nM |
| C=CC(=O)N1CCC[C@@H](Sc2nc(Nc3cnn(CC)c3)nc3[nH]ncc23)C1 [Example 105, (R)-1-(3-((6-((1-ethyl-1H-pyrazol-4-yl)amino)-1H-pyrazolo [3,4-d]pyrimidin-4-yl)thio)piperidin-1-yl)prop-2-en-1-one] | 3.6 nM | 1.9 nM |
| C=CC(=O)N1CC[C@@H](C)[C@@H](Nc2nc(Nc3cnn(CC)c3)nc3[nH]ncc23)C1 [Example 106, 1-((3R,4R)-3-((6-((1-ethyl-1H-pyrazol-4-yl)amino)-1H-pyrazolo [3,4-d]pyrimidin-4-yl)amino)-4-methylpiperidin-1-yl)prop-2-en-1-one] | 54.8 nM | 1.8 nM |
| C=CC(=O)N1CCC[C@@H](Sc2nc(Nc3cnn(C4CC4)c3)nc3[nH]nc(Cl)c23)C1 [Example 110] | 1.7 nM | 1.4 nM |

Continued by falling IC50 [1], values first:

| IC50 [1] | IC50 [2] | Structure (SMILES) |
| --- | --- | --- |
| 1.1 nM | 1.3 nM | C=CC(=O)N1CCC[C@@H](Sc2nc(Nc3cnn(CC)c3)nc3[nH]nc(Cl)c23)C1 [Example 111, (R)-1-(3-((3-chloro-6-((1-ethyl-1H-pyrazol-4-yl)amino)-1H-pyrazolo[3,4-d]pyrimidin-4-yl)thio)piperidin-1-yl)prop-2-en-1-one] |
| 0.7 nM | 24 nM | C=CC(=O)N1CCC[C@@H](Nc2nc(Nc3cnoc3)nc3[nH]cc(Cl)c23)C1 [Example 96, (R)-1-(3-((5-chloro-2-(isoxazol-4-ylamino)-7H-pyrrolo[2,3-d]pyrimidin-4-yl)amino)piperidin-1-yl)prop-2-en-1-one] |
| 0.6 nM | 1.3 nM | C=CC(=O)N1CCC[C@@H](Sc2nc(Nc3cnn(CC(F)F)c3)nc3[nH]nc(Cl)c23)C1 [Example 108] |
| 0.5 nM | 1 nM | C=CC(=O)N1CCC[C@@H](Nc2nc(Nc3cnn(CC(F)F)c3)nc3[nH]nc(Cl)c23)C1 [Example 90, (R)-1-(3-((3-chloro-6-((1-(2,2-difluoroethyl)-1H-pyrazol-4-yl)amino)-1H-pyrazolo [3,4-d]pyrimidin-4-yl)amino)piperidin-1-yl)prop-2-en-1-one hydrochloride] |
| 0.5 nM | 5.9 nM | C=CC(=O)N1CCC[C@@H](Nc2nc(Nc3cnn(CCN(CC)CC)c3)nc3[nH]cc(Cl)c23)C1 [Example 95, (R)-1-(3-((5-chloro-2-((1-(2-(diethylamino)ethyl)-1H-pyrazol-4-yl)amino)-7H-pyrrolo[2,3-d]pyrimidin-4-yl)amino)piperidin-1-yl)prop-2-en-1-one] |
| 0.4 nM | 1 nM | C=CC(=O)N1CC[C@@H](F)[C@@H](Nc2nc(Nc3cnn(CC)c3)nc3[nH]cc(F)c23)C1 [Example 86, 1-((3S,4R)-3-((2-((1-ethyl-1H-pyrazol-4-yl)amino)-5-fluoro-7H-pyrrolo[2,3-d]pyrimidin-4-yl)amino)-4-fluoropiperidin-1-yl)prop-2-en-1-one] |
| 0.3 nM | 2.7 nM | C=CC(=O)N1CCC[C@@H](Sc2nc(Nc3cnn(CC)c3)nc3[nH]ccc23)C1 [Example 104, (R)-1-(3-((2-((1-ethyl-1H-pyrazol-4-yl)amino)-7H-pyrrolo[2,3-d]pyrimidin-4-yl)thio)piperidin-1-yl)prop-2-en-1-one] |
| 0.2 nM | 1.1 nM | C=CC(=O)N1CCC[C@@H](Nc2nc(Nc3cnn(CC)c3)nc3[nH]cc(C#N)c23)C1 [Example 88, (R)-4-((1-acryloylpiperidin-3-yl)amino)-2-((1-ethyl-1H-pyrazol-4-yl)amino)-7H-pyrrolo [2,3-d] pyrim idine-5-carbonitrile] |
| 0.138 nM | 0.864 nM | C=CC(=O)N1CCC[C@@H](Nc2nc(Nc3cnn(C4CC4)c3)nc3[nH]cc(C#N)c23)C1 [Example 89, (R)-4-((1-acryloylpiperidin-3-yl)amino)-2-((1-cyclopropyl-1H-pyrazol-4-yl)amino)-7H-pyrrolo[2,3-d]pyrimidine-5-carbonitrile] |
